The source made the active and inactive calls. The calls are words filed in the database; no cut-off is given here.
Columns and labels:
[1] = target: T1, Fatty-acid amide hydrolase 1 (Homo sapiens, UniProt O00519); test: Inhibition of human FAAH expressed in human H4 cells; assay type: cell-based
T1 sequence (O00519 whole entry): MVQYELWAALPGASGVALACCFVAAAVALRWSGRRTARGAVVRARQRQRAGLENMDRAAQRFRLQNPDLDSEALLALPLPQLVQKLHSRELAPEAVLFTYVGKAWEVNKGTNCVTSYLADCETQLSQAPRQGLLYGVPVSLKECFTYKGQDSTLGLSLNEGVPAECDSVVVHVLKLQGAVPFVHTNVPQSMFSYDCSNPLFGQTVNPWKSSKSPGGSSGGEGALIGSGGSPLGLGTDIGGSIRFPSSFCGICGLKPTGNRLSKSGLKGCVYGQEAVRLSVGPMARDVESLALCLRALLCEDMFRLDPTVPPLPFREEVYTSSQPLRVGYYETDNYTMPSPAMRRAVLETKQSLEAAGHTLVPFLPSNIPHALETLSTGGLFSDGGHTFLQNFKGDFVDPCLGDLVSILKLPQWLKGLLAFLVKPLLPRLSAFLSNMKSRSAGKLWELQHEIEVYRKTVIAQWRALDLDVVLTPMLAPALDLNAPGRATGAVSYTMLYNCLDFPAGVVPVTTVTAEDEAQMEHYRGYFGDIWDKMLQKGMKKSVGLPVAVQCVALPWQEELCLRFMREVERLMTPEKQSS

[2] = target: T1, Fatty-acid amide hydrolase 1; test: Competitive inhibition of human FAAH expressed in human H4 cells; assay type: cell-based
Rattus norvegicus [3] = test: Antinociceptive activity in Sprague-Dawley rat assessed inhibition of thermal stimulus-induced hind paw withdrawal at 1 mg/kg, iv after 32 mins; assay type: functional, organism-based; parameters: dose 1 mg/kg
[4] = target: T2, Fatty-acid amide hydrolase 1 (Homo sapiens) (UniProt O00519); test: Inhibition of human FAAH-mediated anandamide hydrolysis expressed in human H4 cells assessed as reduction in initial reaction rate at 5 nM by fluorescence assay relative to vehicle control; assay type: cell-based; parameters: scale not given: the % may be the effect or the level left
T2 sequence (whole entry): T1 sequence (O00519 whole entry)

Rattus norvegicus [5] = test: Antinociceptive activity in iv dosed Sprague-Dawley rat assessed inhibition of thermal stimulus-induced hind paw withdrawal after 32 mins in presence of anandamide; assay type: functional, organism-based
Rattus norvegicus [6] = test: Antinociceptive activity in Sprague-Dawley rat assessed inhibition of thermal stimulus-induced hind paw withdrawal at 10 mg/kg, iv after 32 mins; assay type: functional, organism-based; parameters: dose 10 mg/kg

**Q.** CCCCCCCCCOc1ccc(NC(=O)O/N=C/c2cccnc2)cc1 was tested. Which IC50 [1] did it give?
**A.** 0.65 nM

**Q.** With CCCCCCOc1ccc(NC(=O)Oc2ccccc2)cc1 as the compound, how does the IC50 [1] read?
**A.** 31 nM

**Q.** With CCCCOc1ccc(NC(=O)ON=C(C)C)cc1OC as the compound, how does the IC50 [1] read?
**A.** 11000 nM

**Q.** CCCCCOc1ccc(NC(=O)O/N=C/c2cccnc2)cc1 was tested. Which IC50 [1] did it give?
**A.** 6.1 nM

**Q.** For CCCCCCOc1ccc(NC(=O)O/N=C/c2cccnc2)cc1, which IC50 [1] is on record?
**A.** 8.3 nM

**Q.** With CCCCCCCCCCCCOc1ccc(NC(=O)Oc2ccccc2)cc1 as the compound, how does the IC50 [1] read?
**A.** 1.8 nM

**Q.** Which IC50 [1] does the source give for CCCCCCCCCCCOc1ccc(NC(=O)O/N=C/c2ccc(F)cc2)cc1 here?
**A.** 0.4 nM

**Q.** For CCCCOc1cccc(NC(=O)ON=C(C)C)c1, which IC50 [1] is on record?
**A.** 6300 nM

**Q.** For CCCCCCCCCCOc1ccc(NC(=O)O/N=C/c2ccc(F)cc2)cc1, which IC50 [1] is on record?
**A.** 0.25 nM

**Q.** Which IC50 [1] does the source give for COc1ccc(NC(=O)O/N=C/c2ccccc2)cc1 here?
**A.** 290 nM

**Q.** CCOc1ccc(NC(=O)ON=C(C)C)cc1 was tested. Which IC50 [1] did it give?
**A.** 730 nM

**Q.** For CCCCOc1ccc(CNC(=O)Oc2cccc(C(F)(F)F)c2)cc1, which IC50 [1] is on record?
**A.** 40 nM

**Q.** Which IC50 [1] does the source give for CCOc1ccc(NC(=O)O/N=C/c2ccccc2)cc1 here?
**A.** 81 nM

**Q.** What does the source list for CCCCOc1ccc(NC(=O)O/N=C/c2ccc(F)cc2)cc1?
**A.** Ki [2]: 30 nM; IC50 [1]: 2.2 nM; Activity (Rattus norvegicus [3]): inactive; Activity [4]: 25%; Activity (Rattus norvegicus [5]): Dose-dependent effect; Activity (Rattus norvegicus [6]): inactive

**Q.** With CCCOc1ccc(NC(=O)O/N=C/c2ccc(F)cc2)cc1 as the compound, how does the IC50 [1] read?
**A.** 13 nM

**Q.** Which IC50 [1] does the source give for CCCCCCCCCCCOc1ccc(NC(=O)Oc2ccccc2F)cc1 here?
**A.** 15 nM

**Q.** How did the IC50 [1] turn out when CCCCOc1ccc(CNC(=O)Oc2ccc(F)cc2F)cc1 was run?
**A.** 8.7 nM

**Q.** Which IC50 [1] does the source give for CCCCCCCCOc1ccc(NC(=O)O/N=C/c2ccc(F)cc2)cc1 here?
**A.** 0.27 nM

**Q.** For CCCCCCCCOc1ccc(NC(=O)ON=C(C)C)cc1, which IC50 [1] is on record?
**A.** 2.4 nM

**Q.** For CCCCCCCOc1ccc(NC(=O)O/N=C/c2cccnc2)cc1, which IC50 [1] is on record?
**A.** 2.3 nM

**Q.** How did the IC50 [1] turn out when CCCCOc1ccc(CNC(=O)Oc2ccccc2F)cc1 was run?
**A.** 9.2 nM

**Q.** For CCCCCCCOc1ccc(NC(=O)Oc2ccccc2F)cc1, which IC50 [1] is on record?
**A.** 28 nM

**Q.** For CCCCOc1ccc(NC(=O)ON=C(C)C)cc1, which IC50 [1] is on record?
**A.** 28 nM

**Q.** With CCCCCCCOc1ccc(NC(=O)ON=C(C)C)cc1 as the compound, how does the IC50 [1] read?
**A.** 8.4 nM

**Q.** How did the IC50 [1] turn out when Cc1nc(-c2ccccc2)c(-c2ccccc2)n1CCCCCCNC(=O)Oc1ccccc1F was run?
**A.** 1.7 nM

**Q.** Which IC50 [1] does the source give for CCCCCCCCCCOc1ccc(NC(=O)O/N=C/c2ccccc2)cc1 here?
**A.** 0.35 nM

**Q.** With CCCCCOc1ccc(NC(=O)O/N=C/c2ccc(F)cc2)cc1 as the compound, how does the IC50 [1] read?
**A.** 1.8 nM

**Q.** How did the IC50 [1] turn out when CCCCCCOc1ccc(NC(=O)Oc2ccccc2F)cc1 was run?
**A.** 710 nM

**Q.** With CCCCCCOc1ccc(NC(=O)ON=C(C)C)cc1 as the compound, how does the IC50 [1] read?
**A.** 18 nM

**Q.** For CCCCOc1ccc(NC(=O)Oc2ccc(F)cc2)cc1, which IC50 [1] is on record?
**A.** 120 nM

**Q.** CCc1ccc(-c2ccc(NC(=O)Oc3ccccc3F)cc2)cc1 was tested. Which IC50 [1] did it give?
**A.** 810 nM

**Q.** For CCCCOc1ccc(CNC(=O)ON=C(C)C)cc1, which IC50 [1] is on record?
**A.** 570 nM

**Q.** For CCCCOc1ccc(NC(=O)Oc2ccccc2F)cc1, which IC50 [1] is on record?
**A.** 340 nM

**Q.** With CCCCOc1ccc(C(CC)NC(=O)Oc2cccc(N(C)C)c2)cc1 (stereo not drawn) as the compound, how does the IC50 [1] read?
**A.** 54 nM

**Q.** CCCCCCOc1ccc(NC(=O)O/N=C/c2ccc(F)cc2)cc1 was tested. Which IC50 [1] did it give?
**A.** 6.5 nM

**Q.** With CCCCCCCOc1ccc(NC(=O)O/N=C/c2ccc(F)cc2)cc1 as the compound, how does the IC50 [1] read?
**A.** 2.3 nM

**Q.** With CCCCCCCCCCOc1ccc(NC(=O)ON=C(C)C)cc1 as the compound, how does the IC50 [1] read?
**A.** 2.2 nM

**Q.** For CCCCCCOc1ccc(NC(=O)O/N=C/c2ccccc2)cc1, which IC50 [1] is on record?
**A.** 8 nM

**Q.** CCCCCOc1ccc(NC(=O)ON=C(C)C)cc1 was tested. Which IC50 [1] did it give?
**A.** 28 nM

**Q.** CCCCCCCCCCCCOc1ccc(NC(=O)Oc2ccccc2F)cc1 was tested. Which IC50 [1] did it give?
**A.** 13 nM

**Q.** CCCOc1ccc(NC(=O)ON=C(C)C)cc1 was tested. Which IC50 [1] did it give?
**A.** 210 nM

**Q.** CCCCCCCCCCCCOc1ccc(NC(=O)O/N=C/c2ccccc2)cc1 was tested. Which IC50 [1] did it give?
**A.** 2.4 nM

**Q.** Which IC50 [1] does the source give for CCCCCCCCCCCOc1ccc(NC(=O)O/N=C/c2cccnc2)cc1 here?
**A.** 0.15 nM

**Q.** With CCCCCCCCCCOc1ccc(NC(=O)Oc2ccccc2)cc1 as the compound, how does the IC50 [1] read?
**A.** 1.4 nM

**Q.** CCCCOc1ccc(C(CC)NC(=O)Oc2ccccc2)cc1 (stereo not drawn) was tested. Which IC50 [1] did it give?
**A.** 12 nM

**Q.** For CCCCCCCCCOc1ccc(NC(=O)O/N=C/c2ccccc2)cc1, which IC50 [1] is on record?
**A.** 0.25 nM

**Q.** Which IC50 [1] does the source give for CCCOc1ccc(NC(=O)O/N=C/c2cccnc2)cc1 here?
**A.** 29 nM

**Q.** With CCCCOc1ccc(CNC(=O)Oc2ccc(F)cc2)cc1 as the compound, how does the IC50 [1] read?
**A.** 4.6 nM

**Q.** With CCCCOc1ccc(C(CC)NC(=O)Oc2ccccc2F)cc1 (stereo not drawn) as the compound, how does the IC50 [1] read?
**A.** 7.7 nM

**Q.** For CCCCCOc1ccc(NC(=O)O/N=C/c2ccccc2)cc1, which IC50 [1] is on record?
**A.** 3.5 nM

**Q.** With CCCCCCCCCOc1ccc(NC(=O)ON=C(C)C)cc1 as the compound, how does the IC50 [1] read?
**A.** 2.1 nM

**Q.** How did the IC50 [1] turn out when CCCCCCCCOc1ccc(NC(=O)Oc2ccccc2)cc1 was run?
**A.** 5.4 nM

**Q.** With CCCCCCCCCCCOc1ccc(NC(=O)O/N=C/c2ccccc2)cc1 as the compound, how does the IC50 [1] read?
**A.** 0.45 nM

**Q.** With CCCCCCCCOc1ccc(NC(=O)Oc2ccccc2F)cc1 as the compound, how does the IC50 [1] read?
**A.** 19 nM

**Q.** With CCCCOc1ccc(C(CC)NC(=O)Oc2cccc(C(F)(F)F)c2)cc1 (stereo not drawn) as the compound, how does the IC50 [1] read?
**A.** 51 nM

**Q.** CCCCOc1ccc(C(CC)NC(=O)Oc2ccc(F)cc2)cc1 (stereo not drawn) was tested. Which IC50 [1] did it give?
**A.** 12 nM

**Q.** Which IC50 [1] does the source give for CCCCCCCCCCCCOc1ccc(NC(=O)ON=C(C)C)cc1 here?
**A.** 5 nM

**Q.** CCOc1ccc(NC(=O)O/N=C/c2cccnc2)cc1 was tested. Which IC50 [1] did it give?
**A.** 150 nM

**Q.** For CCCCCCCCCCOc1ccc(NC(=O)O/N=C/c2cccnc2)cc1, which IC50 [1] is on record?
**A.** 0.35 nM

**Q.** For O=C(Nc1ccc(Oc2ccccc2)cc1)Oc1ccccc1F, which IC50 [1] is on record?
**A.** 1300 nM

**Q.** Which IC50 [1] does the source give for CCCCCCCCCCCOc1ccc(NC(=O)ON=C(C)C)cc1 here?
**A.** 4.9 nM

**Q.** CCCCCCCCCCCCOc1ccc(NC(=O)O/N=C/c2ccc(F)cc2)cc1 was tested. Which IC50 [1] did it give?
**A.** 2.1 nM

**Q.** CCCCCCCCCOc1ccc(NC(=O)O/N=C/c2ccc(F)cc2)cc1 was tested. Which IC50 [1] did it give?
**A.** 0.2 nM

**Q.** How did the IC50 [1] turn out when CCCCOc1ccc(NC(=O)O/N=C/c2cccnc2)cc1 was run?
**A.** 14 nM

**Q.** Which IC50 [1] does the source give for CCCCCCCCCCCCOc1ccc(NC(=O)O/N=C/c2cccnc2)cc1 here?
**A.** 0.35 nM

**Q.** With CCCCCCCCOc1ccc(NC(=O)O/N=C/c2cccnc2)cc1 as the compound, how does the IC50 [1] read?
**A.** 0.8 nM

**Q.** Which IC50 [1] does the source give for CCCCOc1ccc(CNC(=O)Oc2cccnc2)cc1 here?
**A.** 6.1 nM

**Q.** How did the IC50 [1] turn out when CCCCCCCCCCOc1ccc(NC(=O)Oc2ccccc2F)cc1 was run?
**A.** 9.2 nM

**Q.** Which IC50 [1] does the source give for CCCCOc1ccc(CNC(=O)Oc2cccc(Cl)c2)cc1 here?
**A.** 12 nM

**Q.** For CCCCCCCCOc1ccc(NC(=O)O/N=C/c2ccccc2)cc1, which IC50 [1] is on record?
**A.** 0.43 nM

**Q.** CCCCCCCOc1ccc(NC(=O)Oc2ccccc2)cc1 was tested. Which IC50 [1] did it give?
**A.** 8.6 nM

**Q.** Which IC50 [1] does the source give for CCCCOc1ccc(C(CC)NC(=O)Oc2ccc(OC)cc2)cc1 (stereo not drawn) here?
**A.** 12 nM

**Q.** For CCOc1ccc(NC(=O)O/N=C/c2ccc(F)cc2)cc1, which IC50 [1] is on record?
**A.** 46 nM

**Q.** For CCCCCCCCCCCOc1ccc(NC(=O)Oc2ccccc2)cc1, which IC50 [1] is on record?
**A.** 1 nM

**Q.** How did the IC50 [1] turn out when CCCCOc1ccc(NC(=O)O/N=C/c2ccccc2)cc1 was run?
**A.** 8.5 nM

**Q.** With CCCOc1ccc(NC(=O)O/N=C/c2ccccc2)cc1 as the compound, how does the IC50 [1] read?
**A.** 9.3 nM

**Q.** How did the IC50 [1] turn out when CCCCCCCOc1ccc(NC(=O)O/N=C/c2ccccc2)cc1 was run?
**A.** 8.6 nM

**Q.** With CCCCOc1ccc(C(CC)NC(=O)Oc2ccc(F)cc2F)cc1 (stereo not drawn) as the compound, how does the IC50 [1] read?
**A.** 21 nM
